Laboratory results reported in patent US20250312352A1, “GLP-1R MODULATING COMPOUNDS” (Gilead Sciences, Inc., priority 2021, published 2025).

Molecular target: T1, GLP-1R (Homo sapiens, UniProt P43220)
T1 construct: host or cells: CHO cells
Assay: GLP-1R activation cAMP assay (Assay 1 or Assay 2)
Format: cell-based
Settings: cAMP increase in CHO cells stably expressing GLP-1R; compounds run on one of the two cAMP assays
Method in brief: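 CHO cells stably expressing human GLP-1R were incubated 1 h in HBSS/20 mM HEPES/0.1% BSA, then exposed to 10-point agonist dilutions for 30 min at 37 °C. cAMP increase was measured with an HTRF Gs dynamic kit; EC50 from sigmoidal fit of response versus log concentration.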

T1 sequence (P43220 24-463): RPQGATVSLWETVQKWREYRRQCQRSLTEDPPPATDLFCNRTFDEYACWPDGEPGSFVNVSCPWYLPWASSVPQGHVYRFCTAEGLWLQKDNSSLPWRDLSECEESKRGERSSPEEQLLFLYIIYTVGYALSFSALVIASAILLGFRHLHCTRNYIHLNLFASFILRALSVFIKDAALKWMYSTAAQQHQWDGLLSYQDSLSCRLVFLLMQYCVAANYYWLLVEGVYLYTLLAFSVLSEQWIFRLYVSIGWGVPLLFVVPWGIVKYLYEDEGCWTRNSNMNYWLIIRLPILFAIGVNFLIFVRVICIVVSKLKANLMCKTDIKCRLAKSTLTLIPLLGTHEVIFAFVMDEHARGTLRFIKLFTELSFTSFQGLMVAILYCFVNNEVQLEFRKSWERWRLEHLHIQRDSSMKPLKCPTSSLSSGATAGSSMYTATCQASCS

EC50 | SMILES
0.13 nM | O=C(O)c1ccc2nc(Cc3cc(F)c(-c4cccc(OCc5nnc(-c6cnn(C7CC7)c6)s5)n4)cc3F)n(C[C@@H]3CCO3)c2c1 [Example 96, (S)-2-(4-(6-((5-(1-cyclopropyl-1H-pyrazol-4-yl)-1,3,4-thiadiazol-2-yl)methoxy)pyridin-2-yl)-2,5-difluorobenzyl)-1-(oxetan-2-ylmethyl)-1H-benzo[d]imidazole-6-carboxylic acid]
0.341 nM | Cn1cc(C#Cc2ccc(COc3cccc(-c4cc(F)c(Cc5nc6ccc(C(=O)O)cc6n5C[C@@H]5CCO5)cc4F)n3)c(F)c2)nn1 [Example 301, (S)-2-(2,5-difluoro-4-(6-((2-fluoro-4-((1-methyl-1H-1,2,3-triazol-4-yl)ethynyl)benzyl)oxy)pyridin-2-yl)benzyl)-1-(oxetan-2-ylmethyl)-1H-benzo[d]imidazole-6-carboxylic acid]
0.252 nM | O=C(O)c1ccc2nc(Cc3cc(F)c(-c4cccc(OCc5ncc(C#Cc6cncs6)cc5F)n4)cc3F)n(C[C@@H]3CCO3)c2c1 [Example 303, (S)-2-(2,5-difluoro-4-(6-((3-fluoro-5-(thiazol-5-ylethynyl)pyridin-2-yl)methoxy)pyridin-2-yl)benzyl)-1-(oxetan-2-ylmethyl)-1H-benzo[d]imidazole-6-carboxylic acid]
0.931 nM | Cc1cc(Cc2nc3c(F)cc(C(=O)O)cc3n2[C@@H]2COCC2(C)C)c(Cl)cc1-c1ccc(F)c(OCc2ncc(C(C)(F)F)s2)n1 [Example 426, (S)-2-(2-chloro-4-(6-((5-(1,1-difluoroethyl)thiazol-2-yl)methoxy)-5-fluoropyridin-2-yl)-5-methylbenzyl)-1-(4,4-dimethyltetrahydrofuran-3-yl)-4-fluoro-1H-benzo[d]imidazole-6-carboxylic acid]
0.295 nM | Cn1cc(C#Cc2ccc(COc3cccc(-c4cc(F)c(Cc5nc6ccc(C(=O)O)cc6n5C[C@@H]5CCO5)cc4F)n3)c(Cl)n2)cn1 [Example 363, (S)-2-(4-(6-((2-chloro-6-((1-methyl-1H-pyrazol-4-yl)ethynyl)pyridin-3-yl)methoxy)pyridin-2-yl)-2,5-difluorobenzyl)-1-(oxetan-2-ylmethyl)-1H-benzo[d]imidazole-6-carboxylic acid]
1.86 nM | Cn1cc(-c2cnc(COc3cccc(-c4cc(F)c(Cc5nc6ccc(C(=O)O)cc6n5C[C@@H]5CCO5)cc4F)n3)s2)nn1 [Example 89, (S)-2-(2,5-difluoro-4-(6-((5-(1-methyl-1H-1,2,3-triazol-4-yl)thiazol-2-yl)methoxy)pyridin-2-yl)benzyl)-1-(oxetan-2-ylmethyl)-1H-benzo[d]imidazole-6-carboxylic acid]
0.29 nM | Cn1nccc1NC(=O)c1cc(Cl)c(COc2cccc(-c3cc(F)c(Cc4nc5ccc(C(=O)O)cc5n4C[C@@H]4CCO4)cc3F)n2)cn1 [Example 196, (S)-2-(4-(6-((4-chloro-6-((1-methyl-1H-pyrazol-5-yl)carbamoyl)pyridin-3-yl)methoxy)pyridin-2-yl)-2,5-difluorobenzyl)-1-(oxetan-2-ylmethyl)-1H-benzo[d]imidazole-6-carboxylic acid]
0.14 nM | Cn1cc(-c2cc(F)c(COc3cccc(-c4cc(F)c(Cc5nc6ccc(C(=O)O)cc6n5C[C@@H]5CCO5)cc4F)n3)s2)cn1 [Example 86, (S)-2-(2,5-difluoro-4-(6-((3-fluoro-5-(1-methyl-1H-pyrazol-4-yl)thiophen-2-yl)methoxy)pyridin-2-yl)benzyl)-1-(oxetan-2-ylmethyl)-1H-benzo[d]imidazole-6-carboxylic acid]
0.95 nM | O=C(O)c1ccc2nc(Cc3cc(F)c(-c4cccc(OCc5ccn(C(F)F)n5)n4)cc3F)n(C[C@@H]3CCO3)c2c1 [Example 9, (S)-2-(4-(6-((1-(difluoromethyl)-1H-pyrazol-3-yl)methoxy)pyridin-2-yl)-2,5-difluorobenzyl)-1-(oxetan-2-ylmethyl)-1H-benzo[d]imidazole-6-carboxylic acid]
0.183 nM | O=C(O)c1ccc2nc(Cc3cc(F)c(-c4cccc(OCc5ncc(C#Cc6ccc(F)cc6)cc5F)n4)cc3F)n(C[C@@H]3CCO3)c2c1 [Example 284, (S)-2-(2,5-difluoro-4-(6-((3-fluoro-5-((4-fluorophenyl)ethynyl)pyridin-2-yl)methoxy)pyridin-2-yl)benzyl)-1-(oxetan-2-ylmethyl)-1H-benzo[d]imidazole-6-carboxylic acid]
0.29 nM | Cn1nc(COc2cccc(-c3cc(F)c(Cc4nc5ccc(C(=O)O)cc5n4C[C@@H]4CCO4)cc3F)n2)cc1C(F)(F)F [Example 71, (S)-2-(2,5-difluoro-4-(6-((1-methyl-5-(trifluoromethyl)-1H-pyrazol-3-yl)methoxy)pyridin-2-yl)benzyl)-1-(oxetan-2-ylmethyl)-1H-benzo[d]imidazole-6-carboxylic acid]
1.77 nM | Cc1cc(Cc2nc3ccc(C(=O)O)cc3n2[C@@H]2COCC2(C)C)c(Cl)cc1-c1ccc(F)c(OCc2ncc(C(F)(F)F)s2)n1 [Example 371, (S)-2-(2-chloro-4-(5-fluoro-6-((5-(trifluoromethyl)thiazol-2-yl)methoxy)pyridin-2-yl)-5-methylbenzyl)-1-(4,4-dimethyltetrahydrofuran-3-yl)-1H-benzo[d]imidazole-6-carboxylic acid]
0.577 nM | CCOc1nnc(COc2cccc(-c3cc(F)c(Cc4nc5ccc(C(=O)O)cc5n4[C@@H]4COCC4(C)C)cc3C)c2)s1 [Example 259, (S)-1-(4,4-dimethyltetrahydrofuran-3-yl)-2-((3′-((5-ethoxy-1,3,4-thiadiazol-2-yl)methoxy)-5-fluoro-2-methyl-[1,1′-biphenyl]-4-yl)methyl)-1H-benzo[d]imidazole-6-carboxylic acid]
0.239 nM | O=C(O)c1cc(F)c2nc(Cc3cc(F)c(-c4ccc(F)c(OCc5ncc(C(F)F)s5)n4)cc3F)n(C[C@@H]3CCO3)c2c1 [Example 407, (S)-2-(4-(6-((5-(difluoromethyl)thiazol-2-yl)methoxy)-5-fluoropyridin-2-yl)-2,5-difluorobenzyl)-4-fluoro-1-(oxetan-2-ylmethyl)-1H-benzo[d]imidazole-6-carboxylic acid]
0.129 nM | N#Cc1cccc(C#Cc2cnc(COc3cccc(-c4cc(F)c(Cc5nc6ccc(C(=O)O)cc6n5C[C@@H]5CCO5)cc4F)n3)s2)c1 [Example 316, (S)-2-(4-(6-((5-((3-cyanophenyl)ethynyl)thiazol-2-yl)methoxy)pyridin-2-yl)-2,5-difluorobenzyl)-1-(oxetan-2-ylmethyl)-1H-benzo[d]imidazole-6-carboxylic acid]
0.689 nM | Cc1nc(C#Cc2cnc(COc3cccc(-c4cc(F)c(Cc5nc6ccc(C(=O)O)cc6n5C[C@@H]5CCO5)cc4F)n3)c(F)c2)cs1 [Example 291, (S)-2-(2,5-difluoro-4-(6-((3-fluoro-5-((2-methylthiazol-4-yl)ethynyl)pyridin-2-yl)methoxy)pyridin-2-yl)benzyl)-1-(oxetan-2-ylmethyl)-1H-benzo[d]imidazole-6-carboxylic acid]
0.26 nM | N#CC1(NC(=O)c2ccc(COc3cccc(-c4cc(F)c(Cc5nc6ccc(C(=O)O)cc6n5C[C@@H]5CCO5)cc4F)n3)cn2)CC1 [Example 183, (S)-2-(4-(6-((6-((1-cyanocyclopropyl)carbamoyl)pyridin-3-yl)methoxy)pyridin-2-yl)-2,5-difluorobenzyl)-1-(oxetan-2-ylmethyl)-1H-benzo[d]imidazole-6-carboxylic acid]
0.067 nM | COc1nnc(COc2cccc(-c3cc(F)c(Cc4nc5c(F)cc(C(=O)O)cc5n4CC4(CF)CC4)c(F)c3F)n2)s1 [Example 280, 4-fluoro-1-((1-(fluoromethyl)cyclopropyl)methyl)-2-(2,3,6-trifluoro-4-(6-((5-methoxy-1,3,4-thiadiazol-2-yl)methoxy)pyridin-2-yl)benzyl)-1H-benzo[d]imidazole-6-carboxylic acid]
0.081 nM | O=C(O)c1cc(F)c2nc(Cc3c(F)cc(-c4cccc(OCc5ncc(C(F)(F)F)s5)n4)c(F)c3F)n(C[C@@H]3CCO3)c2c1 [Example 449, (S)-4-fluoro-1-(oxetan-2-ylmethyl)-2-(2,3,6-trifluoro-4-(6-((5-(trifluoromethyl)thiazol-2-yl)methoxy)pyridin-2-yl)benzyl)-1H-benzo[d]imidazole-6-carboxylic acid]
0.11 nM | N#Cc1cnc(COc2cccc(-c3cc(F)c(Cc4nc5ccc(C(=O)O)cc5n4C[C@@H]4CCO4)cc3F)n2)s1 [Example 2, (S)-2-(4-(6-((5-cyanothiazol-2-yl)methoxy)pyridin-2-yl)-2,5-difluorobenzyl)-1-(oxetan-2-ylmethyl)-1H-benzo[d]imidazole-6-carboxylic acid]
0.621 nM | Cn1cc(C#Cc2ccc(COc3cccc(-c4cc(F)c(Cc5nc6ccc(C(=O)O)cc6n5C[C@@H]5CCO5)cc4F)n3)cc2)cn1 [Example 306, (S)-2-(2,5-difluoro-4-(6-((4-((1-methyl-1H-pyrazol-4-yl)ethynyl)benzyl)oxy)pyridin-2-yl)benzyl)-1-(oxetan-2-ylmethyl)-1H-benzo[d]imidazole-6-carboxylic acid]
0.563 nM | O=C(O)c1ccc2nc(Cc3cc(F)c(-c4cccc(OCc5ncc(-c6ccc(Cl)cc6)s5)n4)cc3F)n(C[C@@H]3CCO3)c2c1 [Example 384, (S)-2-(4-(6-((5-(4-chlorophenyl)thiazol-2-yl)methoxy)pyridin-2-yl)-2,5-difluorobenzyl)-1-(oxetan-2-ylmethyl)-1H-benzo[d]imidazole-6-carboxylic acid]
0.39 nM | C[C@@H](C#N)NC(=O)c1cc(Cl)c(COc2cccc(-c3cc(F)c(Cc4nc5ccc(C(=O)O)cc5n4C[C@@H]4CCO4)cc3F)n2)cn1 [Example 201, 2-(4-(6-((4-chloro-6-(((S)-1-cyanoethyl)carbamoyl)pyridin-3-yl)methoxy)pyridin-2-yl)-2,5-difluorobenzyl)-1-(((S)-oxetan-2-yl)methyl)-1H-benzo[d]imidazole-6-carboxylic acid]
